The target in assay [1] is Potassium/sodium hyperpolarization-activated cyclic nucleotide-gated channel 1 (Mus musculus, UniProt O88704). Kind of assay: Inhibition of mouse HCN1 expressed in HEK293 cells assessed as reduction in hyperpolarization activated current at holding potential of -80 mV by patch clamp assay. The format is cell-based. (In patch-clamp work, channel activity is measured electrically.)

The nature of assay [2]: Selectivity ratio of EC50 for human HCN1 to EC50 for mouse HCN4.
Assay [3] in a line: Selectivity ratio of EC50 for human HCN2 to EC50 for mouse HCN4.
For assay [4], the system named is Cardiac muscle of left ventricle. Description: Effect on cardiac electrophysiological profile in Mongrel perfused dog heart left ventricular muscle stimulated at basic cycle length of 1000 milliseconds assessed as maximum diastolic potential at 1 uM measured after 25 mins by glass capillary microelectrode based electrophysiology assay (reference value: -83.8 +/- 2.28 mV). The format is functional, Canis lupus familiaris.

For assay [5] the test system is unchanged. Description: Effect on cardiac electrophysiological profile in Mongrel perfused dog heart left ventricular muscle stimulated at basic cycle length of 1000 milliseconds assessed as maximum diastolic potential at 10 uM measured after 25 mins by glass capillary microelectrode based electrophysiology assay (reference value: -83.8 +/- 2.28 mV). The format is functional, Canis lupus familiaris.

Assay [6] has the same test system. Kind of assay: Effect on cardiac electrophysiological profile in Mongrel perfused dog heart left ventricular muscle stimulated at basic cycle length of 1000 milliseconds assessed as Vmax at 1 uM measured after 25 mins by glass capillary microelectrode based electrophysiology assay (reference value: 244.6 +/- 30.87 V/s). The class given is functional, Canis lupus familiaris.

The test system is the same in assay [7]. Description: Effect on cardiac electrophysiological profile in Mongrel perfused dog heart left ventricular muscle stimulated at basic cycle length of 1000 milliseconds assessed as action potential time duration at 90% of repolarization at 1 uM measured after 25 mins by glass capillary microelectrode based electrophysiology assay (reference value: 212.5 +/- 16.25 milliseconds). The format is functional, Canis lupus familiaris.

For assay [8] the test system is unchanged. Description: Effect on cardiac electrophysiological profile in Mongrel perfused dog heart left ventricular muscle stimulated at basic cycle length of 1000 milliseconds assessed as action potential time duration at 90% of repolarization at 10 uM measured after 25 mins by glass capillary microelectrode based electrophysiology assay (reference value: 212.5 +/- 16.25 milliseconds). The format is functional, Canis lupus familiaris.

The test system is the same in assay [9]. Kind of assay: Effect on cardiac electrophysiological profile in Mongrel perfused dog heart left ventricular muscle stimulated at basic cycle length of 1000 milliseconds assessed as action potential time duration at 75% of repolarization at 10 uM measured after 25 mins by glass capillary microelectrode based electrophysiology assay (reference value: 199.7 +/- 16.87 milliseconds). The format is functional, Canis lupus familiaris.

For assay [10] the test system is unchanged. Description: Effect on cardiac electrophysiological profile in Mongrel perfused dog heart left ventricular muscle stimulated at basic cycle length of 1000 milliseconds assessed as action potential time duration at 25% of repolarization at 1 uM measured after 25 mins by glass capillary microelectrode based electrophysiology assay (reference value: 131.7 +/- 13.1 milliseconds). The format is functional, Canis lupus familiaris.

The test system is the same in assay [11]. Kind of assay: Effect on cardiac electrophysiological profile in Mongrel perfused dog heart left ventricular muscle stimulated at basic cycle length of 1000 milliseconds assessed as action potential time duration at 25% of repolarization at 10 uM measured after 25 mins by glass capillary microelectrode based electrophysiology assay (reference value: 131.7 +/- 13.1 milliseconds). The format is functional, Canis lupus familiaris.

For assay [12] the test system is unchanged. Description: Effect on cardiac electrophysiological profile in Mongrel perfused dog heart left ventricular muscle stimulated at basic cycle length of 1000 milliseconds assessed as action potential time duration at 10% of repolarization at 10 uM measured after 25 mins by glass capillary microelectrode based electrophysiology assay (reference value: 69.9 +/- 10.84 milliseconds). The format is functional, Canis lupus familiaris.

In assay [13] the target is T1, Potassium/sodium hyperpolarization-activated cyclic nucleotide-gated channel 4 (Mus musculus) (UniProt O70507).
T1 sequence (whole entry): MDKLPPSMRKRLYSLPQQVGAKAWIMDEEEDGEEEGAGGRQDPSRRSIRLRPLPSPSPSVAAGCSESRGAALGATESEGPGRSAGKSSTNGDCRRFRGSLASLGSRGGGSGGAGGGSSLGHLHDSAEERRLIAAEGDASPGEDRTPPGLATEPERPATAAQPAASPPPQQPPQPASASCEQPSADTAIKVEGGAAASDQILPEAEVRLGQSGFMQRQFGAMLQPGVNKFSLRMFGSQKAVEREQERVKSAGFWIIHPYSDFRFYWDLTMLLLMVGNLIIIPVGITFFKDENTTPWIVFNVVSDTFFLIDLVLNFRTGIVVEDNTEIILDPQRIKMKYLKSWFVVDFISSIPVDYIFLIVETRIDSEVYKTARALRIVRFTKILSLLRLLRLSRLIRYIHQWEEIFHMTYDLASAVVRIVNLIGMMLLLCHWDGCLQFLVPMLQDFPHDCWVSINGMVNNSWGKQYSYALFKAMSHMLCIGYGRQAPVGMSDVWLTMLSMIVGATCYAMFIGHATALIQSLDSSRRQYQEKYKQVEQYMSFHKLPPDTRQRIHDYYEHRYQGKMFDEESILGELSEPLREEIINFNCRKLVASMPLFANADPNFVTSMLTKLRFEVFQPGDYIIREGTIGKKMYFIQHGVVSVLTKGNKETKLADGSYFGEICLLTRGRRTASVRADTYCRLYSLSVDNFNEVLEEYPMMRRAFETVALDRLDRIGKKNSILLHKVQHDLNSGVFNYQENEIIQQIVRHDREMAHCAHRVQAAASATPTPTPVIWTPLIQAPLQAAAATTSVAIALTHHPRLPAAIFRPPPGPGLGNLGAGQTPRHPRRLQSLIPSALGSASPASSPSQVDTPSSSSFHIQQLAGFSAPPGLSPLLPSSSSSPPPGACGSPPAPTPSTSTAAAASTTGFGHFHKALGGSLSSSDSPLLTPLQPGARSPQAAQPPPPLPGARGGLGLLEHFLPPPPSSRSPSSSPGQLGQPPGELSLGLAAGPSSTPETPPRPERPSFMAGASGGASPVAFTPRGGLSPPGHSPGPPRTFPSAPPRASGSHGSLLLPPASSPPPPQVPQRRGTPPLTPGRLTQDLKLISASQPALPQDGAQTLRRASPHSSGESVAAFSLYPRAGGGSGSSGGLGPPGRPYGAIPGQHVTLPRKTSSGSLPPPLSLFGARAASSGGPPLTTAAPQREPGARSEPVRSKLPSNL
Description: Inhibition of HCN4 in C57BL/6J mouse thalamocortical relay neuron assessed as reduction in hyperpolarization current at 30 uM at holding potential of -120 mV by whole-cell patch clamp assay relative to control.

The species entered for a further assay is Mus musculus. Description: Effect on voltage-dependent K+ channel in C57BL/6J mouse thalamocortical relay neuron assessed as inhibition of step depolarization-induced K+ outward current at 10 uM by whole cell patch clamp assay relative to control.
The nature of assay [14]: Negative chronotropic activity at HCN4 in guinea-pig spontaneously beating isolated atria. The note with it: Cavia porcellus.

Potassium/sodium hyperpolarization-activated cyclic nucleotide-gated channel 1, sequence (O88704 whole entry): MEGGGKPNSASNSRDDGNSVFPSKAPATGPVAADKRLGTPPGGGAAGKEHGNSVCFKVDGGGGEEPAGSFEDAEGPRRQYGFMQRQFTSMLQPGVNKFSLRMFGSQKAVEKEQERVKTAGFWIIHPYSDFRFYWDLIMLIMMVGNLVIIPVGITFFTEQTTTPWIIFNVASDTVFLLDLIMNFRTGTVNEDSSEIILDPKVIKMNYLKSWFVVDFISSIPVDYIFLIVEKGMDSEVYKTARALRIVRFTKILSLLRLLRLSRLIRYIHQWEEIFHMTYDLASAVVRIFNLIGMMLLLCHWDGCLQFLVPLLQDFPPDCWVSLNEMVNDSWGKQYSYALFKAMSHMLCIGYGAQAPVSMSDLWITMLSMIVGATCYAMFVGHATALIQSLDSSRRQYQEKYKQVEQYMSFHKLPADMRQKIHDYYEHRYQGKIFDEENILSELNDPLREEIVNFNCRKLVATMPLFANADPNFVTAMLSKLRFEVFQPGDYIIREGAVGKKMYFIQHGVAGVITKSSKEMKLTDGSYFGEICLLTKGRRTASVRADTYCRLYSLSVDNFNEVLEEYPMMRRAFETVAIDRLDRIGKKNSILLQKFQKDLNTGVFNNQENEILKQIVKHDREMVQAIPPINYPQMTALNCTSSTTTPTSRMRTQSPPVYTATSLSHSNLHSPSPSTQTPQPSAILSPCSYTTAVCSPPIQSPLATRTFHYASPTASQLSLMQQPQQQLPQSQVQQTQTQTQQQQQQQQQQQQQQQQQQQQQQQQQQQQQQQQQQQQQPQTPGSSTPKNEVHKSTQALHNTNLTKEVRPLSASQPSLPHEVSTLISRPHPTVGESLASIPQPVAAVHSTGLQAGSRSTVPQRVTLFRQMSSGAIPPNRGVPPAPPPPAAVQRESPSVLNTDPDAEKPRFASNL

By EC50 is commonly meant the midpoint of the concentration-response curve. As a reminder, the inhibition is the share of the control response that was lost under treatment. Broadly, the IC50 is the concentration that inhibits the measured activity by half. In the case of `COc1ccc(CCN(C)[C@@H]2CCC[C@H](N3CCc4cc(OC)c(OC)cc4CC3=O)C2)cc1OC` (racemic), the 50% effective concentration (EC50) in assay [1] was determined as 21 µM. Besides, the Ratio EC50 in assay [2] and in assay [3] was 5 each time. The figures for the Activity in [4], in assay [5] and in assay [6] were -84 mV, -83 mV and 232.9 V/s, respectively. The Time was 204.9 ms in assay [7]; 220.2 ms in assay [8]; 206 ms in assay [9]; 121.6 ms in assay [10]; 125.1 ms in assay [11]; 55.7 ms in assay [12]. In addition, the inhibition was 91.3% in assay [13] and 14.5% in the assay listed under Mus musculus. For the same compound, the IC50 in [14] turned out to be 9.9 µM.

These data come from ChEMBL document CHEMBL4433219, “EC18 as a Tool To Understand the Role of HCN4 Channels in Mediating Hyperpolarization-Activated Current in Tissues” (ACS Med Chem Lett, 2019).
